We go through four molecules from patent US11878050B2, “Glycoside hydrolases to treat biofilm-associated infections” (priority 2018, dated 2024).

The subject of assay [1] is S. aureus and P. aeruginosa biofilms. Description: Lubbock Chronic Wound Biofilm Model (wound-like media). The format is cell-based. From the text: Lubbock Chronic Wound Biofilm Model. The Lubbock Chronic Wound Biofilm Model, or Lubbock wound model (LWM), has been previously described [Sun Y, Dowd S E, Smith E, Rhoads D D, Wolcott R D. In vitro multispecies Lubbock chronic wound biofilm model. Wound Repair Regen. 2008; 16(6):805-13. Epub 2009/01/09. DeLeon S, Clinton A, Fowler H, Everett J, Horswill A R, Rumbaugh K P. Synergistic interactions of Pseudomonas aeruginosa and Staphylococcus aureus in an in vitro wound model. Infect Immun. 2014; 82(11):4718-28. Epub 2014/08/27. Dalton T, Dowd S E, Wolcott R D, Sun Y, Watters C, Griswold J A, et al. An in vivo polymicrobial biofilm wound infection model to study interspecies interactions. PLoS One. 2011; 6(11):e27317. Epub 2011/11/15, relevant portions incorporated herein by reference]. Briefly, wound-like media (50% bovine plasma, 45% Bolton broth, 5% laked horse blood) was inoculated with […] bacterial cells, and incubated for 48 hours, statically, at 37° C. […] Percent bacterial cell dispersal was calculated by finding the quotient of […]. Percent biomass degraded was calculated by rinsing to remove the post-treatment supernatant, weighing the remaining biomass, and finding the quotient of the post-treatment biofilm weight divided by the pre-treatment biofilm weight. […]

Assay [2] deals with bioluminescent P. aeruginosa. Description: Antibiotic protection and infection clearance in vivo (IVIS). Details: species or system mice.
Description: Glycoside hydrolase and antibiotic treatments. Established infections were treated via topical application of vehicle control, heat-inactivated GH, antibiotic alone (or in combination with heat-inactivated GH), GH alone, or GH plus antibiotic (meropenem). Briefly, woundbeds were irrigated with a 10% α-amylase and cellulase (in a 1:1 combination) solution in three separate topical infusions with 30 minutes of dwell time for each, with or without antibiotics. Septicemia was determined by monitoring animals for signs of systemic illness (lethargy, loss of appetite, labored breathing, tremors), and moribund mice were euthanized via phenobarbital injection. […] In order to image dispersal in vivo, the inventors used a Lumina II XR In Vivo Imaging System (IVIS®). Mice with established wound infections were administered GH therapy, and imaging occurred immediately following treatment, and every 4-5 hours subsequently. For experiments involving systemic antibiotic therapy, peritoneal dosing of 300 mg/kg meropenem occurred 4 hours prior to, and 8 hours following GH treatment. […]
To test if concurrent systemic or topical antibiotics can protect against dispersal-mediated septicemia, 48-hour chronic wound infections comprised of bioluminescent P. aeruginosa were treated with 10% GH as above, and monitored via IVIS for systemic spread.
The subject of another assay is biofilms. The settings on record: cited from earlier work; for Summary (biofilm-disrupting ability): Table 1, literature.
The subject of assay [3] is S. aureus and P. aeruginosa biofilms. Description: Crystal violet biomass assay. The format is cell-based. The procedure: Crystal violet assay. A traditional in vitro crystal violet (CV) biomass assay was performed by inoculating the wells of a 24-well non-tissue culture treated plate (Falcon®) containing 13 mm plastic cell culture coverslips with 1:100 dilutions of overnight cultures of S. aureus and P. aeruginosa in fresh LB broth, and allowing for 48 hours of growth at 37° C., with shaking at 80 rpm. Planktonic cells were then removed via rinsing with PBS, and the biofilm-coated coverslips were treated with enzyme solutions, vehicle, or heat-inactivated controls. After treatment, the coverslips were rinsed with ddH2O, and the remaining biomass was stained with 1% CV in ddH2O for 20 minutes. Coverslips were then rinsed once more with ddH2O and transferred to fresh wells, in which the CV was eluted in 95% ethanol for 1 hour. The eluted CV from treated vs. untreated samples was quantified via absorbance of 595 nm light in a Synergy H1 Hybrid Reader (Biotek®).

The test system is the same in assay [4]. Description: In vitro well-plate cell dispersal assay. The format is cell-based. Particulars: 5% GH solutions, 30 minutes, vs vehicle and heat-inactivated controls. The procedure:
(§1) In vitro cell dispersal. To measure percent dispersal in vitro, the wells of a 24-well non-tissue culture treated plate (Falcon®) were inoculated with 1:100 dilutions of overnight cultures of S. aureus and P. aeruginosa, and biofilms were allowed to grow for 48 hours at 37° C., with shaking at 80 rpm. Following incubation, the supernatant was removed, and each well was gently rinsed with PBS to discard any non-attached biomass. Subsequently, wells were treated with enzyme solutions, vehicle, or heat-inactivated controls. Following treatment, the supernatant was removed and centrifuged at 11,000 rcf for 10 minutes in order to pellet the cells. Cell pellets were then re-suspended in PBS for CFU quantification. Biofilm remaining on the wells were dispersed via sonication and suspended in PBS for CFU quantification. Percent bacterial cell dispersal was calculated by finding the quotient of […].

In assay [5] the test system is S. aureus and P. aeruginosa. Description: Total CFU after GH treatment in vitro (bactericidal activity). It counts as cell-based. The settings on record: 5% GH solutions, 30 minutes. The procedure: as §1
Assay [6] relates to S. aureus and P. aeruginosa polymicrobial biofilms harvested from murine chronic wounds. Nature of the assay: Ex vivo treatment of murine chronic wound biofilms: biomass degraded. The format is cell-based. Particulars: 5% enzyme solutions, 1 hour. The source says: (§2) Murine chronic wound model. A murine chronic wound model has been previously described [Dalton T, Dowd S E, Wolcott R D, Sun Y, Watters C, Griswold J A, et al. An in vivo polymicrobial biofilm wound infection model to study interspecies interactions. PLoS One. 2011; 6(11):e27317. Epub 2011/11/15. Brown R L, Greenhalgh D G. Mouse models to study wound closure and topical treatment of infected wounds in healing-impaired and normal healing hosts. Wound Repair Regen. 1997; 5(2):198-204. Epub 1997/04/01. Rumbaugh K P, Diggle S P, Watters C M, Ross-Gillespie A, Griffin A S, West S A. Quorum sensing and the social evolution of bacterial virulence. Curr Biol. 2009; 19(4):341-5. Epub 2009/02/24, relevant portions incorporated herein by reference]. […] Percent dispersal, percent biomass degraded, and antibiotic tolerance were calculated as with the LWM, described above.
(§3) In order to determine if the results obtained in vitro translated to a more clinically relevant model, the inventors tested the ability of GH solutions to degrade the biomass of, and disperse the cells from, biofilms grown in vivo. […] For analysis of biomass degradation, the inventors measured the weights of the extracted wound-beds before and after treatment with GH, and compared the percent reduction in weight to that of biofilms treated with heat-inactivated GH. […]

The test system is the same in assay [7]. Description: Ex vivo treatment of murine chronic wound biofilms: cell dispersal. It counts as cell-based. Particulars: 5% enzyme solutions, 1 hour, vs vehicle and heat-inactivated controls.
Description: as §2, §3

With gentamicin sulfate [reference compound], the “cells remaining viable after gentamicin treatment” value in assay [1] (P. aeruginosa and S. aureus co-cultured in the LWM, gentamicin alone) is given as “approximately half”.

As to `C[C@@H](O)[C@H]1C(=O)N2C(C(=O)O)=C(S[C@@H]3CN[C@H](C(=O)N(C)C)C3)[C@H](C)[C@H]12` [meropenem], the “protection against GH dispersal-induced dissemination” value in assay [2] (systemic meropenem (300 mg/kg) with 10% GH) and in assay [2] (topical meropenem (3 mg/ml) with 10% GH) was “prevented dissemination of P. aeruginosa” throughout.

Consider Hyaluronidase [reference compound], for which, in the assay with biofilms, the “Summary (biofilm-disrupting ability)” value is recorded as “against HA-containing biofilms, dispersal”.

In the case of cellulase, the “degradation of pre-formed biofilms (crystal violet)” value in assay [3] (0.0025%, 10 minutes) is “significantly degraded”. Further, in assay [3] (0.25% GH solution, 30 minutes, 48 h biofilms), the “biomass of the biofilms (retention of crystal violet stain)” value is given as “significant reduction in biomass”. Moreover, the percent dispersal result in assay [4] was “significant amount of dispersal”; in assay [7], “significantly more total cell dispersal”. In addition, the “total CFU (supernatant + biofilm), bactericidal activity” value in assay [5] is given as “no bactericidal activity”. In addition, in assay [6], the percent biomass degraded entry was “able to degrade”. Besides, in assay [1] (10%, 1 hour, 24-hour-old polymicrobial biofilms), the “disassociation of biofilms cultured in wound-like media” value is “completely disassociates”. Further, the “Summary (biofilm-disrupting ability)” value with biofilms is listed as “shown to cause the dispersal of S. aureus”. Moreover, the “biofilm inhibition / disruption in earlier studies” value with biofilms (literature) was “inhibits biofilm growth by Burkholderia cepacia and Pseudomonas aeruginosa”.
